US20250195661A1, “NIR-responsive stem cell-derived inflammation attenuating complex and use thereof” (priority 2023, published 2025)

Assay: Hydrodynamic size and potential analysis
Assay type: physicochemical
Procedure: The hydrodynamic size distribution and electrical potential of nanomedicines including AuS-TA were evaluated using a Litesizer 500 (Anton Paar) according to the manufacturer's instructions. AuS and TA non-covalently attached to AuS were quantified by determining absorbance using UV-vis spectrophotometry (Biochrom). […] Therefore, the TA amount of Edu-MSCs-AuS-TA was measured based on the AuS-TA ratio of AuS and TA. The concentration of each solution was extrapolated using the linear standard curve for AuS and TA. The morphology, crystallinity, and EDS mapping of AuS-PEG and AuS-TA complexes were analyzed using TEM (F30, Tecnai, USA) and STEM (JEM-ARM200F, JEOL, Japan).

- hydrodynamic size: 77 nm
- surface charge: close to neutral
SMILES: C[C@]12C=CC(=O)C=C1CC[C@H]1[C@@H]3C[C@@H](O)[C@](O)(C(=O)CO)[C@@]3(C)C[C@H](O)[C@@]12F [TA, triamcinolone]
